According to publication PMC10688702, “The indole motif is essential for the antitrypanosomal activity of N^5-substituted paullones” (PLOS ONE, 2023):
Counter-ions that a name gives are not always drawn.

Tests used:
[1] = system: trypanothione synthetase of T. b. brucei (TbTryS); assay: TryS activity screening assay on recombinant TbTryS; type: biochemical; details: % activity at 30 μM compound, errors 2 SD
Protocol: (§1) TryS from different trypanosomatids was produced in recombinant form with an N-terminal His-tag. The constructs pET-15b TbTryS and pET-28c(+)LiTryS were used to express TryS of T. b. brucei 427 (MITat1.4, GenBank accession protein id CAC87573.1), and L. infantum JPCM5 (GenBank accession protein id CAM69145.1). E. coli strain BL21 (DE3) served as the expression host. For TbTryS, the cells were cultured in a medium based in Terrific Broth and induction with isopropyl 1-thio-β-D-galactopyranoside (IPTG), while for LiTryS, the cells were cultured in ZYM-5052 auto-induction medium. For a detailed description of the expression, see Benítez et al.. The purification was performed by immobilised metal affinity chromatography in a HisTrap Fast Flow column (GE Healthcare) followed by size exclusion chromatography. […] The fractions containing recombinant TryS with ≥95% purity were pooled and concentrated to >10 mg protein/mL using a 10 kDa cut-off Amicon filter (Millipore, Billerica, CA). Glycerol was added at a final concentration of 40% (v/v). The samples were stored at -80°C. Enzyme purity and activity were assessed by SDS-PAGE (12%) under reducing conditions and by the end-point TryS assay (see TryS activity screening assay), respectively. Protein concentration was determined using the bicinchoninic acid assay with bovine serum albumin as standard. The protocols yielded 25–30 mg TbTryS or LiTryS per litre of culture medium and homogeneous specific activity.
(§2) For all TryS, ATP was used at 150 μM because of a high background signal at higher concentrations and Spd fixed at 2 mM, in agreement with the intracellular levels calculated from data reported in the literature for trypanosomatids. GSH was adjusted to 0.05 and 0.25 mM for TbTryS and LiTryS, respectively, to avoid substrate inhibition or to approach physiological concentrations. […] Microtiter plate wells were loaded with 5 μL of the test compound, DMSO (reaction control) or a TryS specific inhibitor (inhibition control) and 40 μL of MM solution. The reactions were then started by adding 5 μL of TryS (2 and 3*10^−5 μmol*min^-1*mL^-1 for LiTryS and TbTryS, respectively) and stopped after 15 min with 200 μL BIOMOL® GREEN reagent (Enzo Life Sciences). The compounds used as inhibition control were added at concentrations that inhibited 50% TryS activity: 30 μM and 150 nM MOL2008 for TbTryS and LiTryS, respectively. Blanks were prepared for each condition by adding 5 μL of screening reaction buffer instead of the enzyme. The TryS activity is calculated as follows: TrySactivity%=A650nmCi-A650nmCiB/A650nmE-A650nmEB*100%
(§3) A650 nm Ci is the mean absorbance at 650 nm for the reaction test with compound I (Ci), A650 nm CiB is the mean absorbance at 650 nm for the blank control with compound I (CiB), A650 nm E is the mean absorbance at 650 nm for the reaction control with DMSO (E) and A650 nm EB is the mean absorbance at 650 nm for the blank control with DMSO (EB). The errors were expressed as 2 standard deviations (SD), SD estimated as σ^n−1.

[2] = molecular target: trypanothione synthetase of L. infantum (LiTryS) (Leishmania infantum, UniProt A4I2Z3); assay: TryS activity screening assay on recombinant LiTryS; type: biochemical; details: for activity at 30 µM: read-out: LiTryS activity [% at 30 μM]; for LiTryS activity [% at 30 μM]: recombinant TryS, % activity at 30 μM compound, errors 2 SD
Sequence of trypanothione synthetase of L. infantum (LiTryS) (A4I2Z3 entry or part of it): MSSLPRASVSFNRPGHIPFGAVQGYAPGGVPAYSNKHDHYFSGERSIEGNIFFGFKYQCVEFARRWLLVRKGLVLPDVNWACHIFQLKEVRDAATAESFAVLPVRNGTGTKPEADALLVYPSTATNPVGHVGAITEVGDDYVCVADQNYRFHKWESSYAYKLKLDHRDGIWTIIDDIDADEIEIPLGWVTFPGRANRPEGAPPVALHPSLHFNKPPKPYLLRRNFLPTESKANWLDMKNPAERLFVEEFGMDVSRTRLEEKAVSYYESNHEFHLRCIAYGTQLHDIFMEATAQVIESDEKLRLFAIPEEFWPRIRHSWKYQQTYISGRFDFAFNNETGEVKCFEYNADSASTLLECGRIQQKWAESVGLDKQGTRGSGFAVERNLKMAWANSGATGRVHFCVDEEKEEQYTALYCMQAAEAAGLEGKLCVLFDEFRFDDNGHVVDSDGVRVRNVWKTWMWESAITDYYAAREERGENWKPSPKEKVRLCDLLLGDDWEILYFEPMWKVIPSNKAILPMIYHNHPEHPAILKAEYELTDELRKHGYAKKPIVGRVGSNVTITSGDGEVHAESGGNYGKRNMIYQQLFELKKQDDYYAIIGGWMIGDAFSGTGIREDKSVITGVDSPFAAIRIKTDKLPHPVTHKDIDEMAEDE
Protocol: as §1, §2, §3

[3] = system: bloodstream form of T. b. brucei strain 427; assay: Viability assay for T. b. brucei (whole parasite, bioluminescence); type: cell-based; details: 24 h; for T. b. brucei (BS) proliferation [% at 10 μM]: 10 μM compound
Protocol: Viability assay for T. b. brucei. The bloodstream form of the monomorphic T. b. brucei strain 427, cell line 5141313, constitutively and stably expressing an ectopic copy of the Photinus pyralis red-shifted luciferase, was cultured in vitro with HMI-9 medium, supplemented with 10% fetal bovine serum, 10 U/mL penicillin (Gibco), 10 μg/mL streptomycin (Gibco), 0.2 μg/mL bleomycin (Jena Bioscience), 4 μg/mL G418 disulfate salt (Sigma-Aldrich) and 0.2 μg/mL puromycin (Invitrogen), inside a humidified incubator (Thermo Fisher Scientific) with controlled temperature (37°C) and CO2 (5%) in a 25 or 75 cm^2 vented-cap culture-flask. The anti-trypanosomal activity of compounds was evaluated in a 96-well culture plate containing 2.2 μL/well DMSO (negative control) or compounds dissolved in DMSO (1% final concentration), and 220 μL/well of a suspension of 1 × 10^5 parasites/mL. The plates were incubated at 37°C and 5% CO2 for 24 h. Next, each well was transferred to a 96-well black plate, and 20 μL of a solution containing d-luciferin (1.5 mg/mL in PBS glucose 1% w/v) and Triton X-100 (0.05% v/v) was added. Bioluminescence signal was measured in a LUMIstar OPTIMA Microplate luminometer using the following settings: 10 s shaking, 5 s/well acquisition, 0.2 s measurement delay, maximum gain, and 37°C. For the bioluminescence assay, parasite viability was calculated according to the following formula: parasiteviability%=BLcpd-BLblank/BLneg-BLblank*100%
BL refers to the mean of bioluminescence signal corresponding to the tested compound (cpd), the blank (blank, complete media containing 1% v/v DMSO), or the negative control (neg, parasites treated with 1% v/v DMSO). EC50 values were determined from concentration-response curves fitted to a four-parameter sigmoid equation using the GraphPad Prism software (version 6.0). All errors are expressed as one SD, estimated as σ^n-1. For a detailed explanation of the protocol, see Dibello et al..

[4] = Kinetic aqueous solubility by nephelometry; type: physicochemical; details: phosphate-buffered saline, aqueous buffer, kinetic from dmso stock, PBS pH 7.4, 1% DMSO, 25°C, logS = decadic logarithm of molar solubility [M]
Protocol: Phosphate-buffered saline pH 7.4 was prepared according to the European Pharmacopeia 10.4 by dissolving 2.38 g sodium monohydrogen phosphate dodecahydrate, 0.19 g potassium dihydrogen phosphate and 8.0 g sodium chloride in demineralised water (to a total volume of 1000 mL). The pH was adjusted to a value of 7.4 with hydrochloric acid. The buffer was filtered through a 0.45 μm membrane filter (Chromafil® Xtra PES-45/25) before use.
The kinetic aqueous solubility was determined by nephelometry. The measurements were performed on the NEPHELOstar Plus, with accompanying software Omega 5.11 and MARS 3.20 (BMG LABTECH, Ortenberg, Germany). Generally, 2 dilution series of 1–2 weighed portions of each substance were measured. First, stock solutions of the compounds were prepared in DMSO. A series of dilutions in DMSO were prepared from one stock solution to obtain at least 3 concentrations below and 3 concentrations above the precipitation point in the measured series. The specific concentrations were usually measured as duplicates.
The 96-well plate (Corning UV transparent flat-bottom 96-well plate, Corning Incorporated, Kennenbunk, ME, USA) was inspected for contamination and scratches and measured without samples prior to the solubility measurement of the compounds. 198 μL of phosphate-buffered saline pH 7.4 was placed in a 96 well plate for each well to be measured. 2 μL of a DMSO solution was added and immediately mixed by moving the pipette plunger. This solution either contained no substance—and served as a blank for the measurement (3 wells)—or the respective DMSO dilution of the substance (2–4 wells). The concentration of the solvent DMSO in each measured solution was 1%. The concentration of the compound corresponds to a 1:100 dilution compared to the respective DMSO dilution. The well plate bottom was cleaned with a lint-free cloth and compressed air and inspected for impurities before measurement. After shaking at 500 rpm for 10 s (double orbital), the measurement was carried out in the nephelometer with the laser intensity set to 80% and beam focus of 2.5 mm at a temperature of 25°C.
The obtained measuring points, relative nephelometric units (RNU) per compound concentration, were used to model two straight lines: one straight line with constant low readings and slope → 0 characterises the concentration range where no precipitation has taken place yet; The other straight line has a steep slope and increase of the RNU per concentration and characterises the concentrations at which precipitation takes place in the respective sample vessels.
The evaluation was carried out by calculating the two straight lines and their point of intersection. Outliers and values in a saturation range for the kick-off curve (usually >800 kRNU) were not used to create the straight lines and are listed separately in the evaluation file. […] The x-value of the intersection of the two straight lines represents the kinetic solubility. The results of two dilution series are additionally indicated as range (in brackets). For measurements of 3 or more series, a mean value with standard deviation is provided. The logS value describes the decadic logarithm of the molar solubility: logS (molar solubility [M]).

[5] = system: L. infantum amastigotes (intracellular, in J774.A1 macrophages); assay: Viability assay for L. infantum amastigotes; type: cell-based; details: Leishmania infantum, J774.A1, 24 h, read-out: L. infantum amastigote viability [% at 20 μM]
Protocol: Viability assay for L. infantum amastigotes. L. infantum promastigotes from the reference strain MHOM/MA/67/ITMAP263, stably transfected with a vector encoding a red-shifted luciferase gene (RE9HLUC; Branchini et al.; Benítez et al.) were grown in fresh complete RPMI medium (RPMI basic medium containing 25 mM HEPES, 10% v/v iFBS, 100 U/mL penicillin, 100 μg/mL streptomycin and 15 μg/mL hygromycin B) at 28°C in sealed culture flasks. Metacyclic promastigotes were obtained by a negative selection procedure using peanut agglutinin and used to infect murine macrophages (cell line J774.A1) at a 1:10 ratio for macrophages (5×10^6 cells): parasites (5×10^7 cells). 200 μL of this suspension was added per well to a 96-well culture microplate, which was then incubated at 37°C for 24 h in a 5% CO2/95% air atmosphere incubator. […] The culture microplate was incubated in the CO2 incubator for additional 24 h. Next, the supernatant was removed and the microplate wells were washed with pre-warmed PBS (200 μL). […] All conditions were tested in triplicates and the percentage amastigote viability was calculated as described for infective T. b. brucei, with errors expressed as one SD, estimated as σ^n-1.
A macrophage cell density correction factor based on the incorporation of propidium iodide was calculated and applied to normalise amastigote viability related to host cell density in the well. For a detailed explanation of the protocol, see Benítez et al..

Compound	TbTryS activity [% at 30 μM] [1] [%]	activity at 30 µM [2] [%]	T. b. brucei (BS) proliferation [% at 10 μM] [3] [%]	solubility kinetic at 10 s [4] [M]	LiTryS activity [% at 30 μM] [2]	EC50 ([3]; Trypanosoma brucei, read-out: T. b. brucei (BS) [EC50) [µM]	viability at 20 µM [5] [%]
O=C(O)CN1C(=O)Cc2c([nH]c3ccc(Cl)cc23)-c2ccc(Cl)cc21 [9b, 2-(3,9-Dichloro-6-oxo-7,12-dihydrobenzo[2,3]azepino[4,5-b]indol-5(6H)-yl)acetic acid]	104.0 ± 10.1	90.2 ± 6.7	56.4 ± 3.8				
Cl.O=C(CN1C(=O)CCCc2ccccc21)N1CCNCC1 [2q, 1-[2-Oxo-2-(piperazin-1-yl)ethyl]-1,3,4,5-tetrahydro-2H-benzo[b]azepin-2-one hydrochloride]		113 ± 10.7		> 0.00398			
O=C(O)CN1C(=O)Cc2c([nH]c3ccc(C(F)(F)F)cc23)-c2ccc(Cl)cc21 [9c, 2-(3-Chloro-6-oxo-9-trifluoromethyl-7,12-dihydrobenzo[2,3]azepino[4,5-b]indol-5(6H)-yl)acetic acid]	110.2 ± 11.5	62.4 ± 6.4	61.6 ± 10.2		moderate inhibitory activity		
O=C(O)CN1C(=O)Cc2c([nH]c3ccc(I)cc23)-c2ccc(Cl)cc21 [9a, 2-(3-Chloro-9-iodo-6-oxo-7,12-dihydrobenzo[2,3]azepino[4,5-b]indol-5(6H)-yl)acetic acid]	102.9 ± 6.7	67.2 ± 3.9	24.2 ± 3.4		moderate inhibitory activity	10.5 ± 1.3	
CON=C1CCC(=O)N(CC(=O)NCCN2CCNCC2)c2ccccc21 (mixture of isomers) [5d, (E/Z)-2-[5-(Methoxyimino)-2-oxo-2,3,4,5-tetrahydro-1H-benzo[b]azepin-1-yl]-N-[2-(piperazin-1-yl)ethyl]acetamide dihydrochloride]		97.5 ± 4.7		> 0.001			74.9 ± 11.2
